PMC9806845, “Recombinant actin-depolymerizing factor of the apicomplexan Neospora caninum (NcADF) is susceptible to oxidation” (Frontiers in Cellular and Infection Microbiology, 2022)

Molecular target: T1, NcADF (Neospora caninum, UniProt F0VCT8)
T1 construct: gene NCLIV_012510; N-terminal 6xHis tag, pET28(a), E. coli BL21(DE3), IMAC; 18 kDa; cysteines at 11, 58, 65, 75; TCEP-reduced before assay
T1 sequence (F0VCT8 1-118): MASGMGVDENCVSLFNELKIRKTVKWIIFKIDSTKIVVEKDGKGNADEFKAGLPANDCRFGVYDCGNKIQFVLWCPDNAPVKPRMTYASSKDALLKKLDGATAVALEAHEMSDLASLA
Experiment: DTNB free-thiol assay; also biotin-iodoacetamide alkylation and SDS-PAGE dimerization
Assay type: biochemical
Details: covalent (cysteine oxidation, reversible disulfide dimers); 25 uM protein, 20 mM Tris pH 7.0, 30 min

For `O=S(=O)(O)CCNCl` [NCT, N-chlorotaurine], the “DTNB free-thiol assay; also biotin-iodoacetamide alkylation and SDS-PAGE dimeriz” value was “micromolar concentration of NCT, but not of H2O2, was sufficient to oxidize the protein”.
